This note sets out measurements from patent publication US10800772B2 (Gilead Sciences, Inc., priority 2016, dated 2020).

Molecules are shown by their SMILES.

Assay type in all cases: cell-based, HIV-1
The test system of one assay is HIV-IIIb (wildtype). Briefly: Antiviral assay in MT4 cells, HIV-IIIb wildtype. The note with it: Human immunodeficiency virus 1, IIIB, MT4, 120 h, read-out: WT EC50. In outline:
(§1)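 Luminescence from CellTiter-Glo after a 5-day culture served as the measure of HIV-1 replication in MT4 cells. Cells were infected beforehand for 3 h with HIV-IIIb (0.004 m.o.i.) and exposed to ten 3-fold compound dilutions. EC50 corresponds to a 50% signal decrease.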

The next assay deals with HIV-IIIb IN T174I BT. Briefly: Antiviral assay in MT4 cells, HIV-IIIb IN T174I BT virus (from viral breakthrough). The note with it: Human immunodeficiency virus 1, IIIB, MT4, 120 h, read-out: T174I BT EC50, MT4 cells, HIV-IIIb IN T174I BT (viral breakthrough), 5 days, CellTiter-Glo. The procedure, abridged:
as §1

The next assay concerns HIV-IIIb IN T174I DE. Briefly: Antiviral assay in MT4 cells, HIV-IIIb IN T174I DE virus (from dose escalation passaging). The note with it: Human immunodeficiency virus 1, IIIB, MT4, 120 h, read-out: T174I DE EC50, MT4 cells, HIV-IIIb IN T174I DE (dose escalation), 5 days, CellTiter-Glo. The procedure, abridged:
as §1
In general terms: ATP-based viability assays read luminescence as a measure of living cells.

By EC50 is commonly meant the concentration needed to bring the measured effect to its halfway point. As to `Cc1cc2nc(-c3ccc4c(c3)c(C3CCN(C5CC(F)(F)C5)CC3)nn4C)sc2c(-c2ccc(Cl)cc2)c1[C@H](OC(C)(C)C)C(=O)O` [Compound 155, (S)-2-(tert-butoxy)-2-(7-(4-chloro-phenyl)-2-(3-(1-(3,3-difluorocyclo-butyl)piperidin-4-yl)-1-methyl-1H-indazol-5-yl)-5-methylbenzo[d]thiazol-6-yl) acetic acid], the EC50 in the assay on HIV-IIIb (wildtype) amounted to 13 nM; with HIV-IIIb IN T174I BT it was 922 nM; with HIV-IIIb IN T174I DE, 1920 nM.

In the case of `Cc1cc2nc(-c3ccc4c(c3)c(N3CCC(C)(C(=O)N(C)C)CC3)nn4C)sc2c(-c2ccc(Cl)cc2)c1[C@H](OC(C)(C)C)C(=O)O` [Compound 137, (S)-2-(tert-butoxy)-2-(7-(4-chloro-phenyl)-2-(3-(4-(dimethyl-carbamoyl)-4-methylpiperidin-1-yl)-1-methyl-1H-indazol-5-yl)-5-methylbenzo[d]thiazol-6-yl) acetic acid], the EC50 in the assay on HIV-IIIb (wildtype) came to 10 nM; with HIV-IIIb IN T174I BT, 697 nM; with HIV-IIIb IN T174I DE, 962 nM.

As for `CC(=O)N1CC(N2CCC(c3nn(C(F)F)c4ccc(-c5nc6cc(C)c([C@H](OC(C)(C)C)C(=O)O)c(-c7ccc(Cl)cc7)c6s5)cc34)CC2)C1` [Compound 43, (S)-2-(2-(3-(1-(1-acetylazetidin-3-yl)piperidin-4-yl)-1-(difluoromethyl)-1H-indazol-5-yl)-7-(4-chlorophenyl)-5-methylbenzo[d]thiazol-6-yl)-2-(tert-butoxy)acetic acid], the EC50 worked out at 26 nM with HIV-IIIb (wildtype), 313 nM in the assay on HIV-IIIb IN T174I BT and 409 nM in the assay on HIV-IIIb IN T174I DE.

In the case of `COCC(C)N1CC(c2nn(C)c3ccc(-c4nc5cc(C)c([C@H](OC(C)(C)C)C(=O)O)c(-c6ccc(Cl)cc6)c5s4)cc23)C1` (stereo partly drawn) [Compound 124, (2S)-2-(tert-butoxy)-2-(7-(4-chlorophenyl)-2-(3-(1-(1-methoxypropan-2-yl)azetidin-3-yl)-1-methyl-1H-indazol-5-yl)-5-methylbenzo[d]thiazol-6-yl)acetic acid], the EC50 was 4 nM in the assay on HIV-IIIb (wildtype), 1440 nM in the assay with HIV-IIIb IN T174I BT and 3440 nM in the assay on HIV-IIIb IN T174I DE.

As for `CC(=O)N1CC[C@H](N2CCC(c3nn(C)c4ccc(-c5nc6cc(C)c([C@H](OC(C)(C)C)C(=O)O)c(-c7ccc(Cl)cc7)c6s5)cc34)CC2)C1` [Compound 11, (S)-2-(2-(3-(1-((S)-1-acetylpyrrolidin-3-yl)piperidin-4-yl)-1-methyl-1H-indazol-5-yl)-7-(4-chlorophenyl)-5-methylbenzo[d]thiazol-6-yl)-2-(tert-butoxy)acetic Acid], the concentration giving a half-maximal response (EC50) in the assay with HIV-IIIb (wildtype) is 8 nM; with HIV-IIIb IN T174I BT it was 85 nM; in the assay on HIV-IIIb IN T174I DE, 166 nM.

With `Cc1cc2nc(-c3cnc4c(c3)c(N3CCN(C)CC3)cn4C)sc2c(-c2ccc(Cl)cc2)c1[C@H](OC(C)(C)C)C(=O)O` [Compound 107, (S)-2-(tert-butoxy)-2-(7-(4-chlorophenyl)-5-methyl-2-(1-methyl-3-(4-methylpiperazin-1-yl)-1H-pyrrolo[2,3-b]pyridin-5-yl)benzo[d]thiazol-6-yl)acetic acid], the concentration for a half-maximal effect (EC50) in the assay on HIV-IIIb (wildtype) came to 23 nM; in the assay on HIV-IIIb IN T174I BT, 1110 nM; in the assay with HIV-IIIb IN T174I DE, 2360 nM.

With `Cc1cc2nc(-c3ccc4c(c3)c(C3CCN(C5CN(C)C5)CC3)nn4C)sc2c(-c2ccc(Cl)cc2)c1[C@H](OC(C)(C)C)C(=O)O` [Compound 31, (S)-2-(tert-butoxy)-2-(7-(4-chlorophenyl)-5-methyl-2-(1-methyl-3-(1-(1-methylazetidin-3-yl)piperidin-4-yl)-1H-indazol-5-yl)benzo[d]thiazol-6-yl)acetic acid], the half-maximal effective concentration (EC50) was found to be 12 nM in the assay with HIV-IIIb (wildtype), 138 nM in the assay on HIV-IIIb IN T174I BT and 236 nM with HIV-IIIb IN T174I DE.

As to `COC(=O)N1CC(N2CCC(c3nn(C(F)F)c4ccc(-c5nc6cc(C)c([C@H](OC(C)(C)C)C(=O)O)c(-c7ccc(Cl)cc7)c6s5)cc34)CC2)C1` [Compound 44, (S)-2-(tert-butoxy)-2-(7-(4-chlorophenyl)-2-(1-(difluoromethyl)-3-(1-(1-(methoxycarbonyl)azetidin-3-yl)piperidin-4-yl)-1H-indazol-5-yl)-5-methylbenzo[d]thiazol-6-yl)acetic acid], the 50% effective concentration (EC50) in the assay on HIV-IIIb (wildtype) was determined as 30 nM; with HIV-IIIb IN T174I BT, 600 nM; in the assay on HIV-IIIb IN T174I DE it was 776 nM.

For `Cc1cc2nc(-c3ccc4c(c3)c(C3CCN(C(=O)[C@@H]5CCCO5)CC3)nn4C)sc2c(-c2ccc(Cl)cc2)c1[C@H](OC(C)(C)C)C(=O)O` [Compound 157, (S)-2-(tert-butoxy)-2-(7-(4-chloro-phenyl)-5-methyl-2-(1-methyl-3-(1-((S)-tetrahydrofuran-2-carbonyl)piperidin-4-yl)-1H-indazol-5-yl)benzo[d]thiazol-6-yl)acetic acid], the values for the EC50 with HIV-IIIb (wildtype), in the assay on HIV-IIIb IN T174I BT and in the assay on HIV-IIIb IN T174I DE were 11 nM, 620 nM and 789 nM, respectively.

Turning to `CC(=O)N1CC(N2CCC(c3cn(C)c4ncc(-c5nc6cc(C)c([C@H](OC(C)(C)C)C(=O)O)c(-c7ccc(Cl)cc7)c6s5)nc34)CC2)C1` [Compound 200, (S)-2-(2-(7-(1-(1-acetylazetidin-3-yl)piperidin-4-yl)-5-methyl-5H-pyrrolo[2,3-b]pyrazin-2-yl)-7-(4-chlorophenyl)-5-methylbenzo [d]thiazol-6-yl)-2-(tert-butoxy) acetic acid], the EC50 came to 1 nM in the assay on HIV-IIIb (wildtype), 90 nM with HIV-IIIb IN T174I BT and 241 nM in the assay on HIV-IIIb IN T174I DE.

With `CCN1CCN(c2nn(C)c3ccc(-c4nc5cc(C)c([C@H](OC(C)(C)C)C(=O)O)c(-c6ccc(Cl)cc6)c5s4)cc23)C(=O)C1` [Compound 86, (S)-2-(tert-butoxy)-2-(7-(4-chlorophenyl)-2-(3-(4-ethyl-2-oxopiperazin-1-yl)-1-methyl-1H-indazol-5-yl)-5-methylbenzo[d]thiazol-6-yl)acetic acid], the results for the EC50 in the assay on HIV-IIIb (wildtype), in the assay on HIV-IIIb IN T174I BT and in the assay with HIV-IIIb IN T174I DE were 15 nM, 2330 nM and 2000 nM, respectively.

Regarding `[2H]C([2H])([2H])n1nc(C2CCN(C3CN(C(C)=O)C3)CC2)c2nc(-c3nc4cc(C)c([C@H](OC(C)(C)C)C(=O)O)c(-c5ccc(Cl)cc5)c4s3)ccc21` [Compound 192, (S)-2-(2-(3-(1-(1-acetylazetidin-3-yl)piperidin-4-yl)-1-(methyl-d3)-1H-pyrazolo [4,3-b]pyridin-5-yl)-7-(4-chloro-phenyl)-5-methylbenzo[d]thiazol-6-yl)-2-(tert-butoxy) acetic acid], the concentration giving a half-maximal response (EC50) with HIV-IIIb (wildtype) stood at 1 nM; in the assay with HIV-IIIb IN T174I BT, 28 nM; in the assay on HIV-IIIb IN T174I DE, 55 nM.

For the compound `COC(=O)N1CC(N2CCC(c3cn(C)c4ncc(-c5nc6cc(C)c([C@H](OC(C)(C)C)C(=O)O)c(-c7ccc(Cl)cc7)c6s5)nc34)CC2)C1` [Compound 199, (S)-2-(tert-butoxy)-2-(7-(4-chloro-phenyl)-2-(7-(1-(1-(methoxycarbonyl)azetidin-3-yl)piperidin-4-yl)-5-methyl-5H-pyrrolo[2,3-b]pyrazin-2-yl)-5-methylbenzo[d]thiazol-6-yl) acetic acid], the half-maximal effective concentration (EC50) in the assay on HIV-IIIb (wildtype) is 4 nM; in the assay on HIV-IIIb IN T174I BT, 149 nM; in the assay on HIV-IIIb IN T174I DE it was 770 nM.

Consider `Cc1cc2nc(-c3ccc4c(c3)c(N3CCC3=O)nn4C)sc2c(-c2ccc(Cl)cc2)c1[C@H](OC(C)(C)C)C(=O)O` [Compound 3, (S)-2-(tert-butoxy)-2-(7-(4-chlorophenyl)-5-methyl-2-(1-methyl-3-(2-oxoazetidin-1-yl)-1H-indazol-5-yl)benzo[d]thiazol-6-yl)acetic Acid], for which the EC50 turned out to be 43 nM with HIV-IIIb (wildtype), 5710 nM in the assay with HIV-IIIb IN T174I BT and 5710 nM with HIV-IIIb IN T174I DE.

Regarding `Cc1cc2nc(-c3ccc4c(c3)c(N3CC5(COC5)C3)nn4C)sc2c(-c2ccc(Cl)cc2)c1[C@H](OC(C)(C)C)C(=O)O` [Compound 91, (S)-2-(tert-butoxy)-2-(7-(4-chlorophenyl)-5-methyl-2-(1-methyl-3-(2-oxa-6-azaspiro[3.3]heptan-6-yl)-1H-indazol-5-yl)benzo[d]thiazol-6-yl)acetic acid], the EC50 was found to be 11 nM in the assay with HIV-IIIb (wildtype), 1720 nM in the assay with HIV-IIIb IN T174I BT and 2440 nM in the assay on HIV-IIIb IN T174I DE.

As to `CCn1nc(C2CCN(C3CN(C(=O)OC)C3)CC2)c2nc(-c3nc4cc(C)c([C@H](OC(C)(C)C)C(=O)O)c(-c5ccc(Cl)cc5)c4s3)ccc21` [Compound 179, (S)-2-(tert-butoxy)-2-(7-(4-chloro-phenyl)-2-(1-ethyl-3-(1-(1-(methoxy-carbonyl)azetidin-3-yl)piperidin-4-yl)-1H-pyrazolo [4,3-b]pyridin-5-yl)-5-methylbenzo [d]thiazol-6-yl) acetic acid], the EC50 in the assay on HIV-IIIb (wildtype) amounted to 3 nM; in the assay with HIV-IIIb IN T174I BT it was 28 nM; with HIV-IIIb IN T174I DE, 108 nM.

For `Cc1cc2nc(-c3ccn4ncc(C5CCN(C6COC6)CC5)c4n3)sc2c(-c2ccc(Cl)cc2)c1[C@H](OC(C)(C)C)C(=O)O` [Compound 109, (S)-2-(tert-butoxy)-2-(7-(4-chlorophenyl)-5-methyl-2-(3-(1-(oxetan-3-yl)piperidin-4-yl)pyrazolo[1,5-a]pyrimidin-5-yl)benzo[d]thiazol-6-yl)acetic acid], the figures for the EC50 in the assay on HIV-IIIb (wildtype), in the assay with HIV-IIIb IN T174I BT and in the assay with HIV-IIIb IN T174I DE were 3 nM, 205 nM and 614 nM, respectively.

Turning to `COC(=O)N1CC(N2CCC(c3nn(C4CC4)c4ccc(-c5nc6cc(C)c([C@H](OC(C)(C)C)C(=O)O)c(-c7ccc(Cl)cc7)c6s5)nc34)CC2)C1` [Compound 180, (S)-2-(tert-butoxy)-2-(7-(4-chloro-phenyl)-2-(1-cyclopropyl-3-(1-(1-(methoxy-carbonyl)azetidin-3-yl)piperidin-4-yl)-1H-pyrazolo [4,3-b]pyridin-5-yl)-5-methylbenzo [d]thiazol-6-yl) acetic acid], the EC50 is 4 nM with HIV-IIIb (wildtype), 64 nM in the assay with HIV-IIIb IN T174I BT and 212 nM with HIV-IIIb IN T174I DE.
